The subject of this assay is P388. Description: Induction of apoptosis in P388D1 cell line. In kind it is functional, Mus musculus, DBA/2. On the set-up: concentration or dose not given beside the values.

`CCCCC(=O)CC(=O)N[C@H]1CCOC1=O` yielded an Activity of 111%.

In the case of `O=C(CCCCCCCCCO)CC(=O)N[C@H]1CCOC1=O`, the Activity was 109.5%.

For `CCCCCCCCC(=O)CCC(=O)N[C@H]1CCOC1=O`, the Activity amounted to 115.6%.

Take `CCCCCCCCCCCC(=O)N[C@H]1CCOC1=O`: the Activity is 91.1%.

Compound `CCCCCCCCCC(=O)CC(=O)Nc1ccccc1O` returned an Activity of 109.6%.

`CCCCCCCCCC(=O)CC(=O)N[C@@H]1CCOC1=O` displayed an Activity of 105%.

`O=C(CCCCCCCC1CC1)CC(=O)N[C@H]1CCOC1=O` displayed an Activity of 38.7%.

Compound `CCCCCCCC(=O)CC(=O)N[C@H]1CCOC1=O` returned an Activity of 107.7%.

`CCCC(=O)N[C@H]1CCOC1=O` returned an Activity of 100.4%.

In turn, `O=C(CCCCCCCCCc1ccccc1)CC(=O)N[C@H]1CCOC1=O` came in with an Activity of 14.5%.

As for `O=C(CCCCCCCCCCCc1ccccc1)CC(=O)N[C@H]1CCOC1=O`, the Activity is listed as 12.2%.

For `CCCCC(=O)N[C@H]1CCOC1=O`, the Activity turned out to be 101.8%.

Turning to `O=C(CCCCCC1CC1)CC(=O)N[C@H]1CCOC1=O`, the Activity is listed as 122.9%.

In the case of `O=C(O)CCC(=O)OCCCCCCCCCC(=O)CC(=O)N[C@H]1CCOC1=O`, the Activity is listed as 114%.

The compound `CCCCCCCCCCCC(=O)CC(=O)N[C@H]1CCOC1=O` displayed an Activity of 14.8%.

In turn, `O=C(CCCCCCCc1ccccc1)CC(=O)N[C@H]1CCOC1=O` displayed an Activity of 25.2%.

Take `CCCCCCCC(=O)CCCC(=O)N[C@H]1CCOC1=O`: the Activity was 97.7%.

Take `CCCCCCCCCC(=O)CC(=O)N[C@H]1CCCC[C@@H]1O`: the Activity is listed as 96.2%.

Take `O=C(CCCCCc1ccccc1)CC(=O)N[C@H]1CCOC1=O`: the Activity was determined as 122%.

In the case of `CCCCCCCCCC(=O)CC(=O)N[C@@H](C)C(=O)OC`, the Activity worked out at 111.2%.

In turn, `CCCCCCCCCC(=O)CC(=O)N[C@H]1CCOC1=O` came in with an Activity of 31.9%.

These data come from ChEMBL document CHEMBL1146944, “Synthesis of Pseudomonas quorum-sensing autoinducer analogs and structural entities required for induction of apoptosis in macrophages” (2006).
